One compound from paper PMC2556091 (The EMBO Journal, 2008) can be followed below.

This test concerns the target T1, XcOGT (Xanthomonas campestris, UniProt Q8PC69).
T1 sequence (Q8PC69 1-568): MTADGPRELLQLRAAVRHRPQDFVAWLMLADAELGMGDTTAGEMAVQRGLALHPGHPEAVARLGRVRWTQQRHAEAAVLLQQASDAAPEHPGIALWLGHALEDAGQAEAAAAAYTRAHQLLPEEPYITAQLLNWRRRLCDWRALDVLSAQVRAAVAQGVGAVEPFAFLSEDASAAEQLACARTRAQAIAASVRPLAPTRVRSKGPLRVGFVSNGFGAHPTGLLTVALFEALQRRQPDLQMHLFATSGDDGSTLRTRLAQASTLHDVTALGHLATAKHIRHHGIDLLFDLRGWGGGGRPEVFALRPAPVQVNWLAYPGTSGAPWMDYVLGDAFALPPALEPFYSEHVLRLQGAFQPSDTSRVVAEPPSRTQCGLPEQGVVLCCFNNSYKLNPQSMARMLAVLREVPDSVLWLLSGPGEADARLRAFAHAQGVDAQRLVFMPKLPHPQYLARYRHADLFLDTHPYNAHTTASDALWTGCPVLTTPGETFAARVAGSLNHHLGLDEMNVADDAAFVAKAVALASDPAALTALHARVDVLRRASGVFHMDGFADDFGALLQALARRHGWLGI
Briefly: surface plasmon resonance. The class given is binding. (In SPR one partner is held on a chip, and binding of the other changes the refractive index at the surface.)

The Kd is the free concentration of one partner at which half of the binding sites on the other are occupied at equilibrium, for simple one-to-one binding. A low value points to tighter binding. Take `CC(=O)N[C@H]1[C@@H](OP(=O)(O)OP(=O)(O)OC[C@H]2O[C@@H](n3ccc(=O)[nH]c3=O)[C@H](O)[C@@H]2O)O[C@H](CO)[C@@H](O)[C@@H]1O` [UDP-GlcNAc]: the affinity, expressed as Kd, was 4.2 µM.
